Experiments:
[1] = Spontaneous (uncatalyzed, background) hydrolysis; assay type: physicochemical; details: pH 8.0, 50 mM phosphate; time (h): 17 2; 18 24; 20 0.33; 5 0.33; 22 3.5
Procedure: The practical range of pH for the assay is limited by the rapid spontaneous rate of hydrolysis of an ester Compound 5 above pH 8.0. Initially, the ester was used at a concentration that was about four-fold greater than that of the protein, and the mixture was incubated at pH 7.2 for 10 minutes. Any change in fluorescence above background was noted.
The lack of spectroscopic distinction between such esters and their hydrolysis products recommended a chromatographic analysis of the process. Referring to FIG. 3, a mixture of Compound 7 (5 uM) and the monoclonal antibody from hybridoma P3 6D4 (0.1 uM) in phosphate buffer (50 mM, pH 8.0) was analyzed over time by high performance liquid chromatography (HPLC). The accelerated hydrolysis of the ester was apparent from the decrease of its peak and the concurrent increase in two new peaks that correspond with the expected products. Under these conditions, the ester is completely consumed in 60-80 minutes during which time the background rate accounts for about 12 to 16 percent hydrolysis. The chromatographic profile is the same as that produced by treatment with hog liver esterase.
^c The rate constants were determined spectrophotometrically (at 245
nm) by measuring initial rates at five concentrations of ester.
(§1) ^1 Preliminary initial hydrolyses shown as the percentage of admixed
(§2) reactant ligand consumed for catalyzed and spontaneous hydrolyses. "--" =
(§3) No hydrolysis observed. "NT" = Not tried. All reactions were carried out
(§4) at pH 8.0 in a 50 mM phosphate buffer unless otherwise noted. Hydrolytic
(§5) percentages were determined by HPLC using a Hitachi model 655A12 liquid
(§6) chromatograph with a C18 Vydac 201TP54 column, except as noted below.
(§7) Mixtures of acetonitrile a nd water containing 0.1 percent trichloroaceti
(§8) acid [28:72-50:50 (v/v)] were used as elutant. Hydrolyses of Compounds 5
(§9) and 20 were assayed using fluorescence data.
(§10) ^5 Spontaneous hydrolytic percentages for the time period indicated.
Reaction kinetics were studied using three reactant ligands as substrates for monoclonal receptors 37G2 and 22F5. Data from initial rates were consistent with Michaelis-Menten reaction mechanism for a usual enzyme-substrate system. Initial rates were followed using at 271 nm using a U.V.-visible spectorphotometer for Compound 17, and a fluorescence spectrometer for Compounds 5 and 20, using an excitation wavelength of 355 nm and an emission wavelength of 455 nm for both compounds.

[2] = tested on: 21G2; assay: Hydrolysis of reactant ligands by receptor 21G2; assay type: biochemical, mouse; details: pH 8.0; receptor/ligand uM, time h: 17 1/10, 2; 18 2/10, 24; 20 2/10, 0.33; 5 1/5, 0.33; 22 5/10, 3.5; preliminary
Procedure: as §1, §2, §3, §4, §5, §6, §7, §8, §9
(§11) ^2 Concentrations of receptor molecules (Rec.) and reactant ligands
(§12) (Lig.) in micromolar units, presuming a molecular weight of 150,000
(§13) daltons for each receptor molecule.
(§14) ^3 Reactant ligand (Lig.) used as substrate.
(§15) ^4 Time in hours that the reaction was permitted to take place.
as §10
(§16) ^6 Reaction carried out at pH 7.2 in a 50 mM phosphate buffer.

[3] = tested on: 7E5; assay: Hydrolysis of reactant ligands by receptor 7E5; assay type: biochemical, mouse; details: pH 8.0; receptor/ligand uM, time h: 17 1/10, 2; 18 2/10, 24; 20 2/10, 0.33; 5 1/5, 0.33; 22 5/10, 3.5; preliminary
Procedure: as §1, §2, §3, §4, §5, §6, §7, §8, §9, §11, §12, §13, §14, §15, §10, §16

[4] = tested on: 37G2; assay: Hydrolysis of reactant ligands by receptor 37G2; assay type: biochemical, mouse; details: pH 8.0; receptor/ligand uM, time h: 17 1/10, 2; 18 2/10, 24; 20 2/10, 0.33; 5 1/5, 0.33; 22 5/10, 3.5; preliminary
Procedure: as §1, §2, §3, §4, §5, §6, §7, §8, §9, §11, §12, §13, §14, §15, §10, §16

[5] = tested on: 13E10; assay: Hydrolysis of reactant ligands by receptor 13E10; assay type: biochemical, mouse; details: pH 8.0; receptor/ligand uM, time h: 17 1/10, 2; 18 2/10, 24; 20 2/10, 0.33; 5 1/5, 0.33; 22 5/10, 3.5; preliminary
Procedure: as §1, §2, §3, §4, §5, §6, §7, §8, §9, §11, §12, §13, §14, §15, §10, §16

[6] = tested on: 1209; assay: Hydrolysis of reactant ligands by receptor 12C9 (column head prints 1209); assay type: biochemical, mouse; details: pH 8.0; receptor/ligand uM, time h: 17 1/10, 2; 18 2/10, 24; 20 2/10, 0.33; 5 1/5, 0.33; 22 5/10, 3.5; preliminary
Procedure: as §1, §2, §3, §4, §5, §6, §7, §8, §9, §11, §12, §13, §14, §15, §10, §16

[7] = tested on: 44A2; assay: Hydrolysis of reactant ligands by receptor 44A2; assay type: biochemical, mouse; details: pH 8.0; receptor/ligand uM, time h: 17 1/10, 2; 18 2/10, 24; 20 2/10, 0.33; 5 1/5, 0.33; 22 5/10, 3.5; preliminary
Procedure: as §1, §2, §3, §4, §5, §6, §7, §8, §9, §11, §12, §13, §14, §15, §10, §16

[8] = tested on: 17G8; assay: Hydrolysis of reactant ligands by receptor 17G8; assay type: biochemical, mouse; details: pH 8.0; receptor/ligand uM, time h: 18 2/10, 24; 20 2/10, 0.33; 5 1/5, 0.33; 22 5/10, 3.5; preliminary
Procedure: as §1, §2, §3, §4, §5, §6, §7, §8, §9, §11, §12, §13, §14, §15, §10, §16

[9] = tested on: 22F5; assay: Hydrolysis of reactant ligands by receptor 22F5; assay type: biochemical, mouse; details: pH 8.0; receptor/ligand uM, time h: 17 1/10, 2; 18 2/10, 24; 20 2/10, 0.33; 5 1/5, 0.33; 22 5/10, 3.5; preliminary
Procedure: as §1, §2, §3, §4, §5, §6, §7, §8, §9, §11, §12, §13, §14, §15, §10, §16

[10] = target: monoclonal antibody P3 6D4; assay: Kinetics and inhibition of catalytic ester hydrolysis by monoclonal antibody P3 6D4, spectrophotometric at 245 nm; assay type: biochemical, mouse; details: substrate Compound 7; read-out: inhibition constant ki, catalytic reaction with Compound 7
Procedure: FIG. 4 illustrates a Lineweaver-Burk plot for the hydrolysis of Compound 7 by anti-Compound 4 monoclonal antibody from hybridoma P3 6D4. Velocities were determined spectrophotometrically by measuring initial rates during the first linear portion of the reaction as described with reference to Table 2. The substrate concentrations were corrected for amounts consumed during initial equilibration. ( ) No inhibitor present. ( ) Inhibited by 50 nM phosphonate (Compound 3). ( ) Inhibited by 100 nM phosphonate (Compound 3).
In particular, an exemplary monoclonal receptor was produced by the standard hybridoma technology of Kohler et al., Nature, 256, 495 (1975). Specifically, female 129G1X^+ mice were immunized by intraperitoneal injection with an inoculum of 100 micrograms of conjugate (e.g., Compound 4i bound to KLH) in 300 microliters of a 1:1 mixture of phosphate buffered saline (PBS) pH 7.4 and complete Freund's adjuvant. Two weeks later, the mice were again injected in a like manner with 50 micrograms of the foregoing conjugate in 300 microliters of a 1:1 mixture of PBS (pH 7.4) and 10 mg/ml alum. After an additional eight weeks, the mice were immunized intravenously with 50 micrograms of the conjugate in 200 microliters of PBS (pH 7.4). The spleens were removed from the mice 4 days later, and the spleen cells were fused to myeloma cells.
Reaction kinetics were measured spectrophotometrically by following the absorption change at 245 nanometers. […] Kinetic parameters obtained with these substrates are shown in Table 2 along with the inhibition constants obtained with phosphonate (Compound 3). Under these conditions, the acceleration above the background rate is about 960-fold for Compound 7 and about 200-fold for Compound 8 (corrected for the background hydrolysis rate).
*The kinetic parameters shown in Table 2 are for the hydrolysis of esters
(Compounds 7 and 8) by monoclonal antibody P3 6D4. A PerkinElmer lambda 4
spectrophotometer, equipped with thermostatted cell holder, was used to
measure absorption changes at 245 nm. Cells containing the substrate at
concentrations of 0.5 to 50 micromolar in phosphate buffer (50 mM, pH 8.0
were preequilibrated at 25 degrees C. The concentration of active IgG in
stock solution was found by reacting with the coumarin ester (Compound 5)
and measuring the yield of hydroxycoumarin by fluorescence. The kinetic
run was initiated by addition of an aliquot of the antibody stock solutio
(in 50 mM phosphate buffer, pH 8.0) calculated to give 100 nM IgG. The
mixture was allowed to equilibrate for 2 to 3 minutes and the rate was
then measured during the subsequent 10 minutes. The absorption change for
complete hydrolysis was determined by treatment with esterase. Kinetic
parameters were obtained from L ineweaverBurk plots (see FIG. 4).
Inhibition constants were determined from a plot of the slopes with at
least four inhibitor concentrations of Compound 3. The data were analyzed

[11] = target: monoclonal receptor P3 6D4; assay: Stoichiometric transacylation reaction of monoclonal receptor P3 6D4 with coumarin ester Compound 5 (fluorescence) and its inhibition/inactivation; assay type: biochemical, mouse; details: substrate Compound 5; estimated; read-out: inhibition constant, stoichiometric reaction with Compound 5
Procedure: A Perkin-Elmer LS-5 fluorescence spectrometer was operated at a fixed wavelength, using 355 nanometers (nm) for excitation and measuring the emission at 455 nm. A stock solution of the coumarin ester 5 was prepared in dioxane and was diluted to the desired concentrations in Tris-HCl (50 mM, pH 7) or sodium phosphate (50 mM, pH 4-9).
Reactions were run at 23 degrees C and were initiated by the addition of an aliquot of antibody solution (1 mg/ml) to substrate solutions to provide a final protein concentration of 100 nM. Final fluorescence values were determined by hydrolysis of the substrate with pig liver esterase. The observed reaction rate was corrected for spontaneous hydrolysis. Reaction kinetics were studied by measuring initial rates under pseudo-first order conditions. Active protein concentration was extrapolated from fluorescence values at the end of the reaction. The kinetic parameters were obtained by fitting the data to a hyperbolic curve and from double reciprocal plots. Inhibition constants were determined from the Lineweaver-Burk plot data with at least five inhibitor concentrations. All the data were studied by a least squares analysis.
Antibody preparations were inactivated without introducing fluorescent products by the addition of the activated ester (Compound 8) in dioxane to a solution of the IgG (5 mg/ml) in Tris-HCl (50 mM, pH 6.5) at a ratio of 5 moles of the ester (Compound 8) per mole IgG.
Protein modification was performed in an analogous manner, by the addition of a dioxane solution of the reagent at a known concentration to the antibody. The solution was incubated for 30 minutes before filtration through Sephadex G-25. The activity remaining was compared to control samples. Aliquots of IgG (5 mg/ml) inactivated with the ester (Compound 8) were diluted with four volumes of phosphate buffer (50 mM, pH 4-9, at intervals of 1 pH unit). Any pH change was recorded, and the sample was stored at 4 degrees C for 24 hours.
Initially, the ester was used at a concentration that was about four-fold greater than that of the protein, and the mixture was incubated at pH 7.2 for 10 minutes. Any change in fluorescence above background was noted.
The termination of the reaction is noted by the return of the rate of fluorescence increase to the background level.

Spon. (spontaneous hydrolysis) [1]	hydrolysis by 21G2 [2]	hydrolysis by 7E5 [3]	hydrolysis by 37G2 [4]	hydrolysis by 13E10 [5]	hydrolysis by 1209 [6]	hydrolysis by 44A2 [7]	hydrolysis by 17G8 [8]	hydrolysis by 22F5 [9]	SMILES	Ki [10] [µM]	Ki [11] [µM]
5 percentage of reactant ligand	19 percentage of reactant ligand	9 percentage of reactant ligand	45 percentage of reactant ligand	14 percentage of reactant ligand	12 percentage of reactant ligand	24 percentage of reactant ligand	22 percentage of reactant ligand	26 percentage of reactant ligand	CC(=O)Nc1ccc(CC(=O)Oc2ccccc2)cc1 [Compound 22]	–	–
–	–	–	–	–	–	–	–	–	CC(=O)Nc1ccc(OP(=O)(O)Cc2ccc(NC(=O)C(F)(F)F)cc2)cc1 [Compound 1i]	0.8	0.1
